By IC50 is commonly meant the concentration needed to halve the response being measured.

Bounds are passed on as bounds.

The experiment deals with Aβ42. Put plainly: In vitro cell screening assay; quantification of Aβ (1-42) peptide by sandwich ELISA. In kind it is cell-based. The conditions noted are these: Human neuroglioma H4 cells stably expressing human wild type APP751; compounds 0.003-10 μM, incubated overnight (16-18 h); Aβ42 in supernatant by sandwich ELISA; normalized to DMSO and DAPT; read-out: Aβ42 H4 Prot Fre IC50. The procedure: Human neuroglioma H4 cells were transfected with a pcDNA3.1 plasmid expressing human wild type APP751 cDNA and a stable cell line was generated using G418 selection. Cells were plated at 15,000 cells/well in Costar 96-well plates and placed at 37° C. and 5% CO2. Six hours after plating, cells were washed three times with Pro293™ chemically defined medium, followed by addition of compounds (0.003-10 μM, final DMSO concentration of 0.33%). Plates were incubated overnight (16-18 h) and supernatant was removed for quantification of Aβ peptides by sandwich ELISA. Cytotoxicity was evaluated using Cell-Titer 96W AQueous One Solution Cell Proliferation Assay according to the manufacturer's protocol.
Aβ peptide levels were quantified by sandwich ELISA. 96-well plates were coated with C-terminal specific Aβ antibodies recognizing either Aβ37, Aβ38, Aβ40, Aβ42, Aβ43 or a N-terminal specific Aβ antibody to detect Aβ 1-x. Plates were then blocked overnight at 4° C. with 1% bovine serum albumin (BSA) in PBS-T. Plates were washed and 100 μl of cultured cell supernatant or synthetic Aβ peptide standards and a detection antibody (4G8-HRP) were applied to the blocked plate and incubated overnight at 4° C. The next day, wells were washed before the addition of detection substrate (TMB peroxidase). Plates were then read for absorbance at 450 nm on a Molecular Devices SpectraMax M5e Microplate Reader.
Compound-treated samples were normalized to samples treated with DMSO alone (no inhibition) and to samples treated with DAPT. IC50 values were calculated from values reported as percent of DMSO controls using nonlinear regression, based on a sigmoidal dose—response (variable slope) model. […] used for calculation.
For orientation: ELISA stands for enzyme-linked immunosorbent assay.
Regarding `COc1nc(C2=NOC(C)C(c3cn(C)c4ncc(C5CC5)cc34)N2)ccc1-n1cnc(C)c1` (single isomer, unassigned; (-)) [Example 56B, (−)-5-(5-cyclopropyl-1-methyl-1H-pyrrolo [2,3-b]pyridin-3-yl)-3-(6-methoxy-5-(4-methyl-1H-imidazol-1-yl)pyridin-2-yl)-6-methyl-5,6-dihydro-4H-1,2,4-oxadiazine], the IC50 came out at 13 nM. The value for `COc1nc(C2=NOC(C3CC3)C(c3ccc(Cl)cc3)N2)ccc1-n1cnc(C)c1` (stereo not drawn) [Example 20B, (+)-cis-5-(4-chlorophenyl)-6-cyclopropyl-3-[6-methoxy-5-(4-methyl-1H-imidazol-1-yl)pyridin-2-yl]-5,6-dihydro-4H-1,2,4-oxadiazine] was 9 nM. Consider `COc1nc(C2=NOC(C)C(c3cc4ccc(Cl)cc4o3)N2)ccc1-n1cnc(C)c1` (single isomer, unassigned) [Example 46C, 5-(6-chlorobenzofuran-2-yl)-3-(6-methoxy-5-(4-methyl-1H-imidazol-1-yl)pyridin-2-yl)-6-methyl-5,6-dihydro-4H-1,2,4-oxadiazine], for which the IC50 turned out to be 291 nM.

Consider `COc1nc(C2=NOCC(c3cn(C)c4ccc(C5CCOCC5)cc34)N2)ccc1-n1cnc(C)c1` (single isomer, unassigned; (+)) [Example 29B, (+)-3-(6-methoxy-5-(4-methyl-1H-imidazol-1-yl)pyridin-2-yl)-5-(1-methyl-5-(tetrahydro-2H-pyran-4-yl)-1H-indol-3-yl)-5,6-dihydro-4H-1,2,4-oxadiazine], for which the IC50 came to 20.5 nM. For `COc1nc(C2=NOC(C3CC3)C(c3cn(C)c4ncc(Cl)cc34)N2)ccc1-n1cnc(C)c1` (stereo not drawn) [57A or 58A, (+)-(cis)-5-(5-chloro-1-methyl-1H-pyrrolo[2,3-b]pyridin-3-yl)-6-cyclopropyl-3-(6-methoxy-5-(4-methyl-1H-imidazol-1-yl)pyridin-2-yl)-5,6-dihydro-4H-1,2,4-oxadiazine], the IC50 stood at 1240 nM.

As to `COc1nc(C2=NOC(C)(C)C(c3ccc(Cl)cc3)N2)ccc1-n1cnc(C)c1` (single isomer, unassigned; (+)) [Example 23B, (+)-5-(4-chlorophenyl)-3-[6-methoxy-5-(4-methyl-1H-imidazol-1-yl)pyridin-2-yl]-6,6-dimethyl-5,6-dihydro-4H-1,2,4-oxadiazine], the IC50 came to 23 nM. The value for `COc1nc(C2=NOCC(C)(c3cn(C)c4ccccc34)N2)ccc1-n1cnc(C)c1` (single isomer, unassigned; (+)) [Example 26A, (+)-3-[3-[6-methoxy-5-(4-methyl-1H-imidazol-1-yl)pyridin-2-yl]-5-methyl-5,6-dihydro-4H-1,2,4-oxadiazin-5-yl]-1-methyl-1H-indole] was 48 nM. With `COc1nc(C2=NOC(C3CC3)C(c3cc4ccccc4o3)N2)ccc1-n1cnc(C)c1` (single isomer, unassigned; (-)) [Example 61B, (−)-5-(benzofuran-2-yl)-6-cyclopropyl-3-(6-methoxy-5-(4-methyl-1H-imidazol-1-yl)pyridin-2-yl)-5,6-dihydro-4H-1,2,4-oxadiazine], the IC50 was 598 nM.

In the case of `COc1nc(C2=NOC(C)C(c3cn(C)c4cc(F)c(F)cc34)N2)ccc1-n1cnc(C)c1` (single isomer, unassigned; (-)) [Example 39C, (−)-5-(5,6-difluoro-1-methyl-1H-indol-3-yl)-3-(6-methoxy-5-(4-methyl-1H-imidazol-1-yl)pyridin-2-yl)-6-methyl-5,6-dihydro-4H-1,2,4-oxadiazine], the IC50 worked out at 729 nM. The figure for `COc1nc(C2=NOC(C)C(c3ccc(Cl)cc3)N2)ccc1-n1cnc(C)c1` (stereo not drawn) [Example 24B, (+)-trans-5-(4-chlorophenyl)-3-[6-methoxy-5-(4-methyl-1H-imidazol-1-yl)pyridin-2-yl]-6-methyl-5,6-dihydro-4H-1,2,4-oxadiazine] is 15 nM; for `COc1nc(C2=NOC(C)C(c3cccc(Cl)c3)N2)ccc1-n1cnc(C)n1` (single isomer, unassigned; (-)) [Example 53A, (−)-5-(3-chlorophenyl)-3-(6-methoxy-5-(3-methyl-1H-1,2,4-triazol-1-yl)pyridin-2-yl)-6-methyl-5,6-dihydro-4H-1,2,4-oxadiazine] it is more than 3000 nM.

For the compound `COc1nc(C2=NOC(C3CC3)C(c3cn(C)c4ncc(F)c(F)c34)N2)ccc1-n1cnc(C)c1` (single isomer, unassigned; (+)) [Example 60A, (+)-6-cyclopropyl-5-(4,5-difluoro-1-methyl-1H-pyrrolo [2,3-b]pyridin-3-yl)-3-(6-methoxy-5-(4-methyl-1H-imidazol-1-yl)pyridin-2-yl)-5,6-dihydro-4H-1,2,4-oxadiazine], the IC50 was determined as 367 nM.

With `COc1nc(C2=NOC(C)C(c3ccc(Cl)cc3)N2)ccc1-c1ccnc(C)c1` (single isomer, unassigned; (+)) [Example 48B, (+)-5-(4-chlorophenyl)-3-(2-methoxy-2′-methyl-[3,4′-bipyridin]-6-yl)-6-methyl-5,6-dihydro-4H-1,2,4-oxadiazine], the IC50 is 18.2 nM.

With `COc1nc(C2=NOC(C)C(c3ccc(Cl)cc3)N2)ccc1-n1cnc(Cl)c1` (single isomer, unassigned; (+)) [Example 42B, (+)-3-(5-(4-chloro-1H-imidazol-1-yl)-6-methoxypyridin-2-yl)-5-(4-chlorophenyl)-6-methyl-5,6-dihydro-4H-1,2,4-oxadiazine], the IC50 was found to be 18.4 nM. For the compound `COc1nc(C2=NOC(C)C(c3cn(C)c4ncc(F)c(F)c34)N2)ccc1-n1cnc(C)c1` (single isomer, unassigned; (+)) [Example 51C, (+)-5-(4,5-difluoro-1-methyl-1H-pyrrolo [2,3-b]pyridin-3-yl)-3-(6-methoxy-5-(4-methyl-1H-imidazol-1-yl)pyridin-2-yl)-6-methyl-5,6-dihydro-4H-1,2,4-oxadiazine], the IC50 turned out to be 975 nM. The figure for `COc1nc(C2=NOC(C3CC3)C(c3cc4ccccc4o3)N2)ccc1-n1cnc(C)c1` (single isomer, unassigned; (+)) [Example 61A, (+)-5-(benzofuran-2-yl)-6-cyclopropyl-3-(6-methoxy-5-(4-methyl-1H-imidazol-1-yl)pyridin-2-yl)-5,6-dihydro-4H-1,2,4-oxadiazine] is 16.8 nM.

With `COc1nc(C2=NOC(C)(C)C(c3ccccc3)N2)ccc1-n1cnc(C)c1` (single isomer, unassigned; (-)) [Example 22A, (−)-3-[6-methoxy-5-(4-methyl-1H-imidazol-1-yl)pyridin-2-yl]-6,6-dimethyl-5-phenyl-5,6-dihydro-4H-1,2,4-oxadiazine], the IC50 was more than 3000 nM. The value for `COc1nc(C2=NOC(C)C(c3cccc(Cl)c3)N2)ccc1-n1cnc(C)n1` (single isomer, unassigned; (+)) [Example 53B, (+)-5-(3-chlorophenyl)-3-(6-methoxy-5-(3-methyl-1H-1,2,4-triazol-1-yl)pyridin-2-yl)-6-methyl-5,6-dihydro-4H-1,2,4-oxadiazine] was 172 nM; that for `COc1nc(C2=NOC(C)C(c3cccc(Cl)c3)N2)ccc1-n1cnc(C)c1` (single isomer, unassigned) [Example 41A, 5-(3-chlorophenyl)-3-(6-methoxy-5-(4-methyl-1H-imidazol-1-yl)pyridin-2-yl)-6-methyl-5,6-dihydro-4H-1,2,4-oxadiazine] was 1430 nM.

As to `COc1nc(C2=NOC(C)C(c3cccc(Cl)c3)N2)ccc1-n1cnc(Cl)c1` (single isomer, unassigned; (+)) [Example 47B, (+)-3-(5-(4-chloro-1H-imidazol-1-yl)-6-methoxypyridin-2-yl)-5-(3-chlorophenyl)-6-methyl-5,6-dihydro-4H-1,2,4-oxadiazine], the IC50 was 36.2 nM. The figure for `COc1nc(C2=NOC(C)(C)C(c3ccccc3)N2)ccc1-n1cnc(C)c1` (single isomer, unassigned; (+)) [Example 22B, (+)-3-[6-methoxy-5-(4-methyl-1H-imidazol-1-yl)pyridin-2-yl]-6,6-dimethyl-5-phenyl-5,6-dihydro-4H-1,2,4-oxadiazine] is 75 nM; for `COc1nc(C2=NOC(C)C(c3cc4ccc(Cl)cc4o3)N2)ccc1-n1cnc(C)c1` (single isomer, unassigned) [Example 46A, 5-(6-chlorobenzofuran-2-yl)-3-(6-methoxy-5-(4-methyl-1H-imidazol-1-yl)pyridin-2-yl)-6-methyl-5,6-dihydro-4H-1,2,4-oxadiazine] it is 225 nM. Consider `COc1nc(C2=NOC(C)C(c3cn(C)c4ncc(C5CC5)cc34)N2)ccc1-n1cnc(C)c1` (single isomer, unassigned; (+)) [Example 56D, (+)-5-(5-cyclopropyl-1-methyl-1H-pyrrolo [2,3-b]pyridin-3-yl)-3-(6-methoxy-5-(4-methyl-1H-imidazol-1-yl)pyridin-2-yl)-6-methyl-5,6-dihydro-4H-1,2,4-oxadiazine], for which the 50% inhibitory concentration (IC50) was 12.5 nM.

These data come from patent publication US20170050980A1, “OXADIAZINE COMPOUNDS AND METHODS OF USE THEREOF” (FORUM Pharmaceuticals Inc., priority 2015, published 2017).
